Results published in article PMC9353555, “Hemoclot Thrombin Inhibitor Assay and Expected Peak-Trough Levels of Dabigatran: A Multicenter Study” (Frontiers in Cardiovascular Medicine, 2022).
Like-named read-outs stand apart in the source and are kept apart here.

What was measured:
[1] = Plasma dabigatran concentration and pharmacokinetics by HPLC-MS/MS; assay type: in vivo, human; conditions: healthy subjects, single dose 150 mg; for AUC(0-t): 150 mg
Procedure: The venous blood samples were collected 0 h and post-dose at 16–19 time points in 3.0 ml EDTA-K2 tubes and centrifuged at 4°C for 10 min at 3,000 g. The plasma samples were stored at –80°C until analysis.
The total anti-thrombin effect from dabigatran etexilate is a result of dabigatran (alone) and dabigatran acylglucuronides. An assay for total dabigatran (the sum of free dabigatran and the contribution from dabigatran acylglucuronides) in plasma is developed, validated and applied ([21], [22]). Thus, dabigatran concentrations were determined by validated HPLC-MS/MS assays at Shimadzu 30 series, API 6500 (Applied Biosystems, Inc., American). The standard calibration curves with good linearity were built for dabigatran within the concentration range of 1.0–300.0 ng/mL, and the lower limit of quantitation (LOQ) was 1.0 ng/mL. The precision (% CV), intra-batch accuracy and inter-batch accuracy were within 6.2–9.2, 90.3–104.3, and 94.6–103.8%, respectively. PK parameters were analyzed by non-compartmental methods using Phoenix Win-Non-lin 7.0 (A Certara™ Company, Princeton, NJ, United States). Cmax (Maximum concentration) and Tmax (the time to Cmax) were obtained from the observed data, while terminal half-life (t1/2), plasma concentration vs. time from 0 to the last measurable time point (AUC0–t) were calculated.
(§1) For detecting pharmacodynamics (PD) parameters, the sampling times were 0, 2, 8, 12 h after dabigatran administration respectively. In patients’ population, plasma sample obtained longer than 10 h after the previous dose was considered for trough concentration; average 2.0 h (range: 1.0–3.0 h) post dose was considered for peak concentration. The reference detection range refers to plasma dabigatran concentrations between the 2.5th and 97.5th percentiles of all values determined by HPLC-MS/MS.

[2] = Hemoclot thrombin inhibitor (HTI) assay of plasma dabigatran concentration; assay type: in vivo, human; conditions: for HTI-peak: peak (1.0–3.0 h post dose); for HTI-trough: trough (>10 h after previous dose)
Procedure: as §1
(§2) Blood samples were collected via 2.7 ml sodium citrate tubes, then centrifuged for 15 min at 2,500 g at room-temperature. The plasma samples were stored at –70°C within 6 months until analysis.
(§3) Pharmacodynamic assessment was performed at a centralized facility in Peking University First Hospital. The HTI, PT, and APTT were measured on Sysmex CS-2100i (Sysmex, Kobe, Japan). PT and APTT were tested using Coagulation Method Assay Kits (Thromborel-S® and Actin®, Marburg, Germany). The normal reference range for the PT and APTT assays used in this study are 10.1–12.6 s for PT and 26.9–37.6 s for APTT. Concentration detection is divided into two standard curves, one is suitable for normal and slightly high concentration range, another one is suitable for low concentration range. When the concentration is below 120 ng/ml, the low concentration standard curve is switched to obtain a more accurate concentration value. […] PD assessment was all performed in our hospital.

[3] = test system: APTT; assay: Activated partial thromboplastin (APTT) coagulation assay after dabigatran; assay type: in vivo, human; conditions: for APTT-peak / APTT-0 h / APTT-trough: NVAF patients, 110 mg bid, target range 26.9–37.6 s; for APTT-peak: peak (1.0–3.0 h post dose); for APTT-0 h: pre-dose; for APTT-trough: trough (>10 h after previous dose)
Procedure: as §1, §2, §3

[4] = test system: PT; assay: Prothrombin time (PT) coagulation assay after dabigatran; assay type: in vivo, human; conditions: for PT-peak / PT-0 h / PT-trough: NVAF patients, 110 mg bid, target range 10.1–12.6 s; for PT-peak: peak (1.0–3.0 h post dose); for PT-0 h: pre-dose; for PT-trough: trough (>10 h after previous dose)
Procedure: as §1, §2, §3

[5] = design: method as in PMID 23718677; conditions: dabigatran 150 mg, American population; cited from earlier work
[6] = 183 patients, 110 mg bid, HTI assay, about 500 blood samples
[7] = NVAF patients, 110 mg bid, HTI-derived concentration
[8] = NVAF patients, 110 mg bid, HTI-derived concentration, listed as dabigatran

SMILES: [H]/N=C(/N)c1ccc(NCc2nc3cc(C(=O)N(CCC(=O)O)c4ccccn4)ccc3n2C)cc1 [Dabigatran]
- C–2 h ([1]; 2 h, HPLC-MS/MS, mean ± SD): 85.51 ± 73.77 ng/mL
- C–8 h ([1]; 8 h, HPLC-MS/MS, mean ± SD): 57.60 ± 23.46 ng/mL
- C–12 h ([1]; 12 h, HPLC-MS/MS, mean ± SD): 36.40 ± 3.15 ng/mL
- Cmax ([1]; mean ± SD): 139.99 ± 55.61 ng/mL
- reference detection range ([1]; 2.5th to 97.5th percentiles of plasma concentrations by HPLC-MS/MS): 33 to 159 ng/mL
- AUC(0-t) ([1]; human, plasma, oral, mean ± SD, read-out: AUC0–12): 1290 ± 442 ng·h/mL
- AUC(0-t) ([1]; human, plasma, oral, mean ± SD, read-out: AUC0–t): 1250 ± 442 ng·h/mL
- concentration at 0 h ([1]; human, plasma, oral, 0 h (pre-dose), HPLC-MS/MS, mean ± SD, read-out: C–0 h): 0 ng/mL
- concentration at 2 h ([1]; human, plasma, oral, 2 h, HPLC-MS/MS, mean ± SD, read-out: C–2 h): 85.5 ng/mL
- concentration at 8 h ([1]; human, plasma, oral, 8 h, HPLC-MS/MS, mean ± SD, read-out: C–8 h): 57.6 ng/mL
- concentration at 12 h ([1]; human, plasma, oral, 12 h, HPLC-MS/MS, mean ± SD, read-out: C–12 h): 36.4 ng/mL
- Tmax ([1]; human, plasma, oral, mean ± SD): 3.61 ± 2.09 h
- half-life ([1]; human, plasma, oral, mean ± SD): 527 ± 79.8 min
- expected peak levels range [2, 6]: 95 to 196 ng/mL
- expected trough levels range [2, 6]: 36 to 92 ng/mL
- HTI-peak [2, 7]: 145.57 ± 50.16 ng/mL
- HTI-peak [2, 8]: 145.57 ng/mL
- HTI-0 h ([2]; NVAF patients, 110 mg bid, pre-dose, HTI-derived concentration): 4.06 ± 2.92 ng/mL
- HTI-trough [2, 7]: 63.74 ± 27.95 ng/mL
- HTI-trough [2, 8]: 63.74 ng/mL
- HTI–2 h ([2]; healthy subjects, single dose 150 mg, 2 h, HTI-derived concentration): 88.89 ± 79.08 ng/mL
- HTI–8 h ([2]; healthy subjects, single dose 150 mg, 8 h, HTI-derived concentration): 61.91 ± 27.46 ng/mL
- HTI–12 h ([2]; healthy subjects, single dose 150 mg, 12 h, HTI-derived concentration): 40.00 ± 16.63 ng/mL
- concentration at 0 h ([2]; human, plasma, oral, NVAF patients, 110 mg bid, pre-dose, HTI-derived concentration): 4.06 ng/mL
- concentration at 0 h ([2]; human, plasma, oral, healthy subjects, single dose 150 mg, 0 h (pre-dose), HTI-derived concentration): 2.99 ± 2.37 ng/mL
- concentration at 2 h ([2]; human, plasma, oral, healthy subjects, single dose 150 mg, 2 h, HTI-derived concentration): 88.9 ng/mL
- concentration at 8 h ([2]; human, plasma, oral, healthy subjects, single dose 150 mg, 8 h, HTI-derived concentration): 61.9 ng/mL
- concentration at 12 h ([2]; human, plasma, oral, healthy subjects, single dose 150 mg, 12 h, HTI-derived concentration): 40 ng/mL
- APTT-peak [3]: 47.89 ± 4.43 s
- APTT-peak ([3]; listed as dabigatran): 47.89 s
- APTT-0 h [3]: 36.47 ± 8.40 s
- APTT-0 h ([3]; listed as dabigatran): 36.47 s
- APTT-trough [3]: 39.08 ± 9.74 s
- APTT-trough ([3]; listed as dabigatran): 39.08 s
- APTT–0 h ([3]; healthy subjects, single dose 150 mg, 0 h (pre-dose), reference range 26.9–37.6 s): 27.78 ± 3.50 s
- APTT–2 h ([3]; healthy subjects, single dose 150 mg, 2 h, reference range 26.9–37.6 s): 39.69 ± 10.69 s
- APTT–8 h ([3]; healthy subjects, single dose 150 mg, 8 h, reference range 26.9–37.6 s): 38.52 ± 6.00 s
- APTT–12 h ([3]; healthy subjects, single dose 150 mg, 12 h, reference range 26.9–37.6 s): 35.22 ± 5.37 s
- PT-peak [4]: 14.04 ± 3.50 s
- PT-peak ([4]; listed as dabigatran): 14.04 s
- PT-0 h [4]: 15.58 ± 5.90 s
- PT-0 h ([4]; listed as dabigatran): 15.58 s
- PT-trough [4]: 13.79 ± 6.15 s
- PT-trough ([4]; listed as dabigatran): 13.79 s
- PT–0 h ([4]; healthy subjects, single dose 150 mg, 0 h (pre-dose), reference range 10.1–12.6 s): 11.74 ± 1.88 s
- PT–2 h ([4]; healthy subjects, single dose 150 mg, 2 h, reference range 10.1–12.6 s): 12.83 ± 1.58 s
- PT–8 h ([4]; healthy subjects, single dose 150 mg, 8 h, reference range 10.1–12.6 s): 12.44 ± 1.31 s
- PT–12 h ([4]; healthy subjects, single dose 150 mg, 12 h, reference range 10.1–12.6 s): 11.97 ± 0.92 s
- reference detection range [5]: 27 to 411 ng/mL
